Measured values: paper PMC8443589, “Modelling human liver fibrosis in the context of non-alcoholic steatohepatitis using a microphysiological system” (Communications Biology, 2021)

Key:
[1] = test system: liver MPS NASH model (PHH, KC and HSC co-cultures); assay: Cue study: secreted cytokines and chemokines (Luminex) with varying NPC number and added cues (Fig 5a, 5b); type: cell-based, human; conditions: for EGF relative expression (z-transformation) / Eotaxin relative expression (z-transformation) / FGF-2 relative expression (z-transformation) / Fit-3L relative expression (z-transformation) / Fractalkine relative expression (z-transformation) / G-CSF relative expression (z-transformation) / GM-CSF relative expression (z-transformation) / GRO relative expression (z-transformation) / IFN-a2 relative expression (z-transformation) / IL-1RA relative expression (z-transformation) / IL-4 relative expression (z-transformation) / IL-6 relative expression (z-transformation) / IL-7 relative expression (z-transformation) / IL-8 relative expression (z-transformation) / IL-15 relative expression (z-transformation) / IP-10 relative expression (z-transformation) / MCP-1 relative expression (z-transformation) / MCP-3 relative expression (z-transformation) / MDC relative expression (z-transformation) / MIP-1a relative expression (z-transformation) / MIP-1b relative expression (z-transformation) / TNFa relative expression (z-transformation) / VEGF relative expression (z-transformation): Fat media + cue
Text: There is only limited understanding of the pathogenic drivers of NASH and their interaction, principally due to a lack of translational models that are amenable to detailed molecular analysis[2],[34]. Here, a systems biology ‘cue-signal-analysis’ paradigm[35],[36] was utilised to produce large factorial datasets to enable the identification of molecular pathways of importance. […] To create varying set ups of the NASH microtissues we created hepatocyte microtissues in the MPS with high numbers of NPC (60,000 KC and HSC—equivalent to 10% of microtissue population) and low numbers of NPCs (6000 KC and HSC—equivalent to 1% of microtissue), representing physiological and non-physiological cell ratios respectively. Next, we took these different microtissues and cultured them in media with or without FFA. Finally, we supplemented the media with lipopolysaccharide (LPS), TGFβ, fructose or cholesterol either as single ‘cues’, in pairs or all together (Fig. 4a). ‘Cues’ were selected for clinical association with NASH. LPS, is a pleiotropic inflammatory molecule, it is proposed to reach the liver via the hepatic portal vein after release from the gastrointestinal tract, contributing to disease progression[37],[38]. TGFβ has been extensively studied in relation to fibrosis due to its regulation of genes controlling collagen and matrix-modifying enzymes. Fructose is a key substrate for de-novo lipogenesis, a process that has been identified as a key event in lipid accumulation within NAFLD patients. Finally, cholesterol accumulation has also been linked to NASH disease aetiology.
Assessment of gene expression changes was supplemented by assessment of the secretome produced by NASH microtissues in the MPS after exposure to the various cues. Increased pro-inflammatory cytokine secretion is a defining characteristic in NASH patients, so we conducted a Luminex cytokine array covering 42 different biomarkers, cytokines and chemokines secreted into the culture media of the different microtissues at multiple time points. […]

[2] = test system: liver MPS NASH model (PHH, KC and HSC co-cultures); assay: Cue study: pro-fibrotic biomarkers TIMP-1, pro-collagen 1, fibronectin (Fig 5c); type: cell-based, human; conditions: fat medium + cue
Text: Assessment of gene expression changes was supplemented by assessment of the secretome produced by NASH microtissues in the MPS after exposure to the various cues. Increased pro-inflammatory cytokine secretion is a defining characteristic in NASH patients, so we conducted a Luminex cytokine array covering 42 different biomarkers, cytokines and chemokines secreted into the culture media of the different microtissues at multiple time points. We consistently detected 27 out of the 42 biomarkers and observed that there was differential expression of cytokines and chemokines driven by the different cues applied to the micro-tissue (Fig. 5a, b). The LPS cue and the presence of higher NPC numbers were responsible for driving the largest increase in cytokine and chemokine release, with the largest increases in cytokines measured on day 14 (Fig. 5b). […] Similarly, to the cytokine production, these changes were not further enhanced by combining cues, as all the cue combinations containing TGFβ had the highest expression (Supp. Fig. 17c).
Fig. 5 Systems biology interrogation of liver MPS NASH model to determine physiologically relevant cues that promote soluble biomarker changes to mimic advanced NASH disease state. PHH, KC and HSC co-cultures were cultured in the MPS platform under a variety of conditions for 14 days to test number of NPCs, presence of fat, fructose, cholesterol, LPS and TGFβ for effects on the soluble biomarker profile of the liver MPS NASH model. Expression of biomarkers, cytokines and chemokines were compared, all concentrations were normalised by Z-transformation to allow comparison and shown relative to mean for each marker (white = not detected). a Cytokine expression compared with varying levels of NPCs; b for the high NPC group in the presence of additional cues; c Expression of pro-fibrotic biomarkers with varying NPC content and with additional varying cues in high NPC condition (additional data in Supp. Fig. 17). d Graphical summary of the changes that occur in the NASH model in the presence of Fat and Fat + TGFβ. All data were generated from a minimum of three independent replicate samples per condition.
The MPS LC12 plates consists of 12 individual bioreactors that contain pneumatically driven micro-pumps to recirculate cell culture medium through a collagen-coated scaffold. Cells were cultured using the protocol previously described[20],[21], but briefly, PHH were seeded at a density of 6 × 10^5 viable cells per well on the LC12 plates with each NPC population (KC and/or HSC) at a density of 6 × 10^4 viable cells per well. Each well contained a final volume of 1.6 mL of medium per well and maintained under a flow rate of 1.0 µL/s. Cells were seeded in Williams E medium containing primary hepatocyte thawing and plating supplements (Life Technologies, USA) and cultured initially under downward flow for 8 h before the flow was automatically reversed to upward flow for the next 16 h of culture. Microtissues were then cultured in either HEP-Lean or HEP-Fat medium, both media’s are proprietary to CN Bio Innovations Ltd. The HEP-Fat medium is a derivative of the HEP-LEAN medium and contains a mixture of saturated and unsaturated FFAs, as well as physiologically relevant quantities of insulin and sugars. Complete media changes were performed on all wells every 48–72 h. For certain experiments, the media was supplemented with additional additives from day 4 onwards: 1 ng/ml LPS (lipopolysaccharides from Escherichia coli O111:B4) (Sigma Aldrich, UK), 1 ng/ml recombinant TGF beta 1 protein (Abcam, UK); 500 µM Fructose (Sigma Aldrich, UK), 50 µg/ml Cholesterol (Sigma Aldrich, UK). […]

O=C(CO)[C@@H](O)[C@H](O)[C@H](O)CO [Fructose]
EGF relative expression (z-transformation) ([1]; Day 6): -1.038
Eotaxin relative expression (z-transformation) ([1]; Day 6): -0.782
FGF-2 relative expression (z-transformation) ([1]; Day 6): -1.187
Fit-3L relative expression (z-transformation) ([1]; Day 6): -0.2857
Fractalkine relative expression (z-transformation) ([1]; Day 6): -0.2691
G-CSF relative expression (z-transformation) ([1]; Day 6): -0.36
GM-CSF relative expression (z-transformation) ([1]; Day 6): -0.4175
GRO relative expression (z-transformation) ([1]; Day 6): -0.4254
IFN-a2 relative expression (z-transformation) ([1]; Day 6): 0.2777
IL-1RA relative expression (z-transformation) ([1]; Day 6): 0.2038
IL-4 relative expression (z-transformation) ([1]; Day 6): -1.323
IL-6 relative expression (z-transformation) ([1]; Day 6): -0.4543
IL-7 relative expression (z-transformation) ([1]; Day 6): -0.8373
IL-8 relative expression (z-transformation) ([1]; Day 6): 0.2742
IL-15 relative expression (z-transformation) ([1]; Day 6): -0.4814
IP-10 relative expression (z-transformation) ([1]; Day 6): -0.2708
MCP-1 relative expression (z-transformation) ([1]; Day 6): 0.3757
MCP-3 relative expression (z-transformation) ([1]; Day 6): -0.2673
MDC relative expression (z-transformation) ([1]; Day 6): 1.214
MIP-1a relative expression (z-transformation) ([1]; Day 6): 0.03503
MIP-1b relative expression (z-transformation) ([1]; Day 6): -0.1641
TNFa relative expression (z-transformation) ([1]; Day 6): -0.2082
VEGF relative expression (z-transformation) ([1]; Day 6): 1.537
EGF relative expression (z-transformation) ([1]; Day 11): -0.1015
Eotaxin relative expression (z-transformation) ([1]; Day 11): 0.09562
FGF-2 relative expression (z-transformation) ([1]; Day 11): -0.4563
Fit-3L relative expression (z-transformation) ([1]; Day 11): 1.324
Fractalkine relative expression (z-transformation) ([1]; Day 11): 0.9874
G-CSF relative expression (z-transformation) ([1]; Day 11): -1.298
GM-CSF relative expression (z-transformation) ([1]; Day 11): -0.6
GRO relative expression (z-transformation) ([1]; Day 11): -0.3142
IFN-a2 relative expression (z-transformation) ([1]; Day 11): 0.6908
IL-1RA relative expression (z-transformation) ([1]; Day 11): 0.879
IL-4 relative expression (z-transformation) ([1]; Day 11): -0.3331
IL-6 relative expression (z-transformation) ([1]; Day 11): -0.2984
IL-7 relative expression (z-transformation) ([1]; Day 11): -0.3548
IL-8 relative expression (z-transformation) ([1]; Day 11): -0.6705
IL-15 relative expression (z-transformation) ([1]; Day 11): 0.3314
IP-10 relative expression (z-transformation) ([1]; Day 11): -0.257
MCP-1 relative expression (z-transformation) ([1]; Day 11): 0.4252
MCP-3 relative expression (z-transformation) ([1]; Day 11): -0.08763
MDC relative expression (z-transformation) ([1]; Day 11): 0.03858
MIP-1a relative expression (z-transformation) ([1]; Day 11): -0.4174
MIP-1b relative expression (z-transformation) ([1]; Day 11): 0.1119
TNFa relative expression (z-transformation) ([1]; Day 11): -0.3492
VEGF relative expression (z-transformation) ([1]; Day 11): -0.07553
EGF relative expression (z-transformation) ([1]; Day 14): -0.09066
Eotaxin relative expression (z-transformation) ([1]; Day 14): 1.581
FGF-2 relative expression (z-transformation) ([1]; Day 14): 0.5869
Fit-3L relative expression (z-transformation) ([1]; Day 14): 1.267
Fractalkine relative expression (z-transformation) ([1]; Day 14): 0.9131
G-CSF relative expression (z-transformation) ([1]; Day 14): 0.4426
GM-CSF relative expression (z-transformation) ([1]; Day 14): -0.06657
GRO relative expression (z-transformation) ([1]; Day 14): 0.04245
IFN-a2 relative expression (z-transformation) ([1]; Day 14): 2.403
IL-1RA relative expression (z-transformation) ([1]; Day 14): 1.114
IL-4 relative expression (z-transformation) ([1]; Day 14): 0.7104
IL-6 relative expression (z-transformation) ([1]; Day 14): 0.4182
IL-7 relative expression (z-transformation) ([1]; Day 14): 1.313
IL-8 relative expression (z-transformation) ([1]; Day 14): 0.7194
IL-15 relative expression (z-transformation) ([1]; Day 14): 1.407
IP-10 relative expression (z-transformation) ([1]; Day 14): 0.8479
MCP-1 relative expression (z-transformation) ([1]; Day 14): 2.011
MCP-3 relative expression (z-transformation) ([1]; Day 14): 1.298
MDC relative expression (z-transformation) ([1]; Day 14): 0.1904
MIP-1a relative expression (z-transformation) ([1]; Day 14): 0.03023
MIP-1b relative expression (z-transformation) ([1]; Day 14): 0.8239
TNFa relative expression (z-transformation) ([1]; Day 14): 0.4054
VEGF relative expression (z-transformation) ([1]; Day 14): -1.095
IP-10 production ([1]; day 15): biggest increase
Fibronectin (Fold change in cytokine production compared to control) ([2]; Day 6, high NPC): 1.389
Pro-collagen 1 (Fold change in cytokine production compared to control) ([2]; Day 6, high NPC): 2.273
TIMP-1 (Fold change in cytokine production compared to control) ([2]; Day 6, high NPC): 1.299
Fibronectin (Fold change in cytokine production compared to control) ([2]; Day 11, high NPC): 0.7381
Pro-collagen 1 (Fold change in cytokine production compared to control) ([2]; Day 11, high NPC): 1.299
TIMP-1 (Fold change in cytokine production compared to control) ([2]; Day 11, high NPC): 0.1393
Fibronectin (Fold change in cytokine production compared to control) ([2]; Day 14, high NPC): 0.7006
Pro-collagen 1 (Fold change in cytokine production compared to control) ([2]; Day 14, high NPC): 0.7125
TIMP-1 (Fold change in cytokine production compared to control) ([2]; Day 14, high NPC): 0.2326
